Assay results published in patent US5843941A, “Ras farnesyl transferase inhibitors” (Genentech, Inc., priority 1994, dated 1998).

Tests used:
CAAX GG transferase = biological target: T1, CAAX GG transferase (Rattus norvegicus, UniProt P53610+Q04631); assay: Inhibition of CAAX GG transferase (geranylgeranyltransferase); assay type: biochemical; conditions: 31B (leucine) vs 27B (methionine); FIG. 2B
T1 construct: partially purified CAAX GG transferase; from tissue
Source text: FIG. 1 compares the inhibitory activity of compound 27B (denoted as BG269B in the figure) on protein prenyltransferases. […] Two other prenyltransferases, both of which transfer 20-carbon geranylgeranyl (GG) groups, have been identified in rat brain. One of thesse, CAAX GG transferase, attaches GG groups to proteins that terminate in CAAX sequences in which X is leucine.
The conditions used to assay the inhibition of CAAX farnesyltransferase are identical to those described above for the in vitro, assay described in Example 121. In FIG. 1B the assay mixture contained, in a final volume of 50 μl, 50 mM sodium Hepes (pH 7.2), 5 mM MgC12, 5 mM DTT, 0.3 mM Nonidet P-40, 0.2% octyl β-glucoside, 1% DMSO, 0.5 μM all trans [3H]geranylgeranyl pyrophosphate (33,000 dpm/pmol; ARC, Inc.), 5 μM recombinant p21^H-rasCVLL, 6.3 μg partially purified CAAX GG transferase (see Seabra, M. C., Reiss, Y., Casey, P. J., Brown, M. S., and Goldstein, J. L. Cell 268, 4055 (1993)) and varying concentrations of the indicated inhibitor. In FIG. 1C, the assay mixture contained in a final volume of 50 μl, 50 mM sodium Hepes (pH 7.2), 5 mM MgCl2, 5 mM DTT, 0.3 mM Nonidet P-40, 0.2% octyl β-D-glucoside, 1% DMSO, 0.5 μM all trans [3H]geranylgeranyl pyrophosphate (33,000 dpm/pmol; ARC, Inc.), 2 μM recombinant Rab1A, 2 ng each of purified Components A and B of Rab GG transferase (see Seabra, M. C., Goldstein, J. L., Sudhof, T. C., and Brown, M. S. J. Biol. Chem. 267, 14497 (1992)) and varying concentrations of the indicated inhibitor.
Each assay was carried out as described in Examples 121 and 122.

[1] = test system: farnesylated proteins F1, F2 and F3 in Met18b-2 cells; assay: Inhibition of intracellular farnesylation in intact Met18b-2 cells, Triton-soluble proteins F1, F2, F3; assay type: cell-based, Chinese hamster; conditions: 250 μM; FIG. 3
Source text: (§1) To study farnesylation in intact cells we used Met18b-2 cells, a line of Chinese hamster ovary (CHO) cells that takes up [3H]mevalonate efficiently (see Faust, J., and Krieger, M. J. Biol. Chem. 262, 1966 (1987)) owing to the production of a mevalonate transport protein (see Kim, C. M., Goldstein, J. L., Brown, M. S. J. Biol. Chem. 267, 23113 (1992)). The [3H]mevalonate is converted by the cells into [3H]farnesyl pyrophosphate and [3H]geranylgeranyl pyrophosphate, which are then attached to proteins (Kim, C. M., Goldstein, J. L., Brown, M. S. J. Biol. Chem. 267, 23113 (1992)). In the assay, stock cultures of Met18b-2 cells were seeded at a density of 3-105 cells per 60 mm dish in 3 ml of medium A (Dulbecco's modified Eagle medium/Ham's F12 medium (1:1, v/v) containing 100 U/ml penicillin and 100 μg/ml streptomycin) supplemented with 5% (v/v) fetal calf serum (FCS). On day 3, each monolayer was refed with 1 ml medium A supplemented with 1% FCS (dialyzed against 0.15 M NaCl). At this point the cells were treated with 100 μM compactin (see Brown, M. S., Faust, J. R., Goldstein, J. L., Kaneko, I., and Endo, A. J. Biol. Chem. 253, 1121 (1978)) which blocks the synthesis of unlabeled mevalonate within the cells. Each compound was dissolved at 25 mM in DMSO/10 mM DTT immediately before use and 10 μl of this solution added directly. After 2 hr incubation at 37° C., each monolayer received 100 μCi [3H]mevalonate (60 Ci/mmol, American Radiolabeled Chemicals, Inc.) added in 100 μl of the medium A, and the incubation continued for 4 hr. The cells were harvested by rinsing three times with 3 ml of 50 mM Tris-HCl/0.15 M NaCl (pH 7.5). 300 μl of lysis buffer (0.5X Dulbecco's phosphate-buffered saline containing 1% Triton X-100, 5 μg/ml leupeptin, 5 μg/ml pepstatin, 0.5 mM phenylmethylsulfonyl fluoride, and 0.05 U/ml aprotinin) was added to each monolayer. After incubation on ice for 5 mon, the lysates were centrifuged 30 sec in a microfuge at 12,000 g. The resulting supernatant was tranferred to a new tube, and each pellet was resuspended in 60 μl of lysis buffer. Protein concentrations were determined using the BCA protein assay reagent (Pierce) according to the manufacturer's instructions. Detergent-soluble (supernatant) and -insoluble (pellet) samples were mixed with 2X SDS sample buffer (see Laemmli, U. K. Nature 227, 680 (1970)) and heated at 95° C. for 5 min before electrophoresis. Each lane contained 90 μg protein, and was run on a 12.5% SDS-polyacrylamide gel. The gel was dried, treated with ENTENSIFY (NEN-DuPont), and exposed to Kodak XOMAT-AR film for 9 h at -80° C. to allow visualization of all prenylated proteins. Migration of [14C]methylated molecular weight standards (Amersham) were used as markers.
The results of this assay are shown in FIG. 3, using a final concentration of 250 μM for each inhibitor. […] As shown in the figure, none of the control peptides or control benzodiazepine-peptideomimetics altered the prenylation of proteins in intact cells.
Using the same cells and procedures followed above for Example 125, we measured the dose dependence upon the inhibition of farnesylation in intact cells. […] Compound 37B inhibited the famesylation of F1-3 detectably at 10 μM, and almost completely at 25 μM.
In this manner, it is possible to obtain data regarding the comparative potency of these inhibitors upon the level of intracellular farnesylation. We have chosen to report the EC90% values for these inhibitors as the concentration required for a reduction in the Triton- soluble labelling (denoted F-1, F-2, and F-3) to 90% of control cells (untreated).

[2] = test system: nuclear lamins A and B in Met18b-2 cells; assay: [3H]mevalonate labeling of farnesylated nuclear lamins in Met18b-2 cells; assay type: cell-based, Chinese hamster; conditions: 250 μM; FIG. 3
Source text: To study farnesylation in intact cells we used Met18b-2 cells, a line of Chinese hamster ovary (CHO) cells that takes up [3H]mevalonate efficiently (see Faust, J., and Krieger, M. J. Biol. Chem. 262, 1966 (1987)) owing to the production of a mevalonate transport protein (see Kim, C. M., Goldstein, J. L., Brown, M. S. J. Biol. Chem. 267, 23113 (1992)). The [3H]mevalonate is converted by the cells into [3H]farnesyl pyrophosphate and [3H]geranylgeranyl pyrophosphate, which are then attached to proteins (Kim, C. M., Goldstein, J. L., Brown, M. S. J. Biol. Chem. 267, 23113 (1992)). In the assay, stock cultures of Met18b-2 cells were seeded at a density of 3-105 cells per 60 mm dish in 3 ml of medium A (Dulbecco's modified Eagle medium/Ham's F12 medium (1:1, v/v) containing 100 U/ml penicillin and 100 μg/ml streptomycin) supplemented with 5% (v/v) fetal calf serum (FCS). On day 3, each monolayer was refed with 1 ml medium A supplemented with 1% FCS (dialyzed against 0.15 M NaCl). At this point the cells were treated with 100 μM compactin (see Brown, M. S., Faust, J. R., Goldstein, J. L., Kaneko, I., and Endo, A. J. Biol. Chem. 253, 1121 (1978)) which blocks the synthesis of unlabeled mevalonate within the cells. […] Protein concentrations were determined using the BCA protein assay reagent (Pierce) according to the manufacturer's instructions. […]

[3] = test system: low molecular weight GTP binding proteins (SMG) in Met18b-2 cells; assay: [3H]mevalonate labeling of low molecular weight GTP binding proteins (SMG) in Met18b-2 cells; assay type: cell-based, Chinese hamster; conditions: 250 μM; FIG. 3
Source text: as §1, with “The resulting supernatant was tranferred to a new tube, and each pellet was resuspended in 60 μl of lysis buffer.” left out, “Detergent-soluble (supernatant) and -insoluble (pellet) samples were mixed with 2X SDS sample buffer (see Laemmli, U. K. Nature 227, 680 (1970)) and heated at 95° C. for 5 min before electrophoresis. Each lane contained 90 μg protein, and was run on a 12.5% SDS-polyacrylamide gel. The gel was dried, treated with ENTENSIFY (NEN-DuPont), and exposed to Kodak XOMAT-AR film for 9 h at -80° C. to allow visualization of all prenylated proteins. Migration of [14C]methylated molecular weight standards (Amersham) were used as markers.” left out

[4] = test system: ras-transformed rat-1 fibroblasts; assay: Cell growth of ras-transformed rat-1 fibroblasts; assay type: cell-based; conditions: Fibroblast, 240 h, 10 days, FIG. 7 Panel B
Description: (§2) To examine the effects of farnesyltransferase inhibition on cell growth, three cell lines (ras-transformed rat-1, src-transformed rat-1, and parental rat-1 cells) were seeded (see FIG. 7) at low density and allowed to grow for 10 days in the absence or presence of increasing concentrations of BZA-5B (compound 37). See Example 128 for description of cells. On day 0, cells were plated in monolayer culture at 2×10^3 cells per well (24-well plates) in 1 ml DMEM supplemented with 10% fetal calf serum, 100 U/ml penicillin, 100 μg/ml streptomycin, 0.5 mM DTT, 0.025% DMSO, and the indicated concentration of BZA-5B (compound 37). On days 3 and 7, cells were washed and refed with the same medium. At the time indicated in FIG. 7, cells were harvested by trypsinization and counted in a Coulter counter. Panels A, C, E show the growth rate of each cell line in the absence of inhibitor. Panels B, D, F show the inhibition of growth as a function of concentration of BZA-5B at each time point. The "100% values" correspond to the appropriate cell numbers in Panels A, C, E at the indicated time. Each value represents a single incubation. As shown in the panels A, C, and E, all three cell lines grew logarithmically with no added inhibitor. […] The growth of src-transformed (Panel D) and untransformed cells (Panel F) were not affected at concentrations of BZA-5B up to 25 μM.

[5] = test system: src-transformed rat-1 fibroblasts; assay: Cell growth of src-transformed rat-1 fibroblasts; assay type: cell-based; conditions: up to 25 μM; FIG. 7 Panel D
Description: as §2

[6] = test system: untransformed parental rat-1 fibroblasts; assay: Cell growth of untransformed parental rat-1 fibroblasts; assay type: cell-based; conditions: up to 25 μM; FIG. 7 Panel F
Description: as §2

T1 sequence (P53610 whole entry, one chain of several): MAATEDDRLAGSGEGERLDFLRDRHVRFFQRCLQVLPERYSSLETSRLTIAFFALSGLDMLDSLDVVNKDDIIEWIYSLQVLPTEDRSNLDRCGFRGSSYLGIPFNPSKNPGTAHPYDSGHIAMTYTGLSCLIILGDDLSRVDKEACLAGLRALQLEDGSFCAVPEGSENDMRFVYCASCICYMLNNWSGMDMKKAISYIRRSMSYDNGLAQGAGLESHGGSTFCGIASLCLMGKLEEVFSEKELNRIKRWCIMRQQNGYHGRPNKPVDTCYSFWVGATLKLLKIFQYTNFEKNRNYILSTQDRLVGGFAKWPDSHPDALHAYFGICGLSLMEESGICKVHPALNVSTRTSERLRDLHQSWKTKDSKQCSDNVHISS

SMILES | fold more sensitivity of CAAX geranylgeranyltransferase to leucine-terminated inhibitor (CAAX GG transferase) [fold] | labeling of Triton-soluble farnesylated proteins (F1 to F3) [1] | labeling of farnesylated lamins (F-NL) [2] | effect on low molecular weight GTP binding proteins (SMG) [3] | inhibition at 25 µM [4] [%] | growth of src-transformed cells [5] | growth of untransformed cells [6]
CC(C)C[C@H](NC(=O)CN1C(=O)C(N(C)C(=O)[C@@H](N)CS)N=C(c2ccccc2)c2ccccc21)C(=O)O (single isomer, unassigned) [31B, N-[[3-[(2-amino-3-mercapto-1-oxopropyl)methylamino]-2,3-dihydro-2-oxo-5-phenyl-1H -1,4-benzodiazepin-1-yl]acetyl]-L-leucine] | 5 | markedly decreased the labeling of all three Triton-soluble farnesylated proteins (F1 to F3) | reduced moderately the labeling of the farnesylated lamins | little effect on the low molecular weight GTP binding proteins |  |  | 
COC(=O)[C@H](CCSC)NC(=O)CN1C(=O)C(N(C)C(=O)[C@@H](N)CS)N=C(c2ccccc2)c2ccccc21 (stereo partly shown) [BZA-5B] |  |  |  |  | ~90 | not affected | not affected
